Results: ChEMBL document CHEMBL1145338, “Novel 2-aminopyrimidine carbamates as potent and orally active inhibitors of Lck: synthesis, SAR, and in vivo antiinflammatory activity” (J Med Chem, 2006)

These molecules were tested against Tyrosine-protein kinase Lck (Homo sapiens, UniProt P06239).
Tyrosine-protein kinase Lck, sequence (P06239 whole entry): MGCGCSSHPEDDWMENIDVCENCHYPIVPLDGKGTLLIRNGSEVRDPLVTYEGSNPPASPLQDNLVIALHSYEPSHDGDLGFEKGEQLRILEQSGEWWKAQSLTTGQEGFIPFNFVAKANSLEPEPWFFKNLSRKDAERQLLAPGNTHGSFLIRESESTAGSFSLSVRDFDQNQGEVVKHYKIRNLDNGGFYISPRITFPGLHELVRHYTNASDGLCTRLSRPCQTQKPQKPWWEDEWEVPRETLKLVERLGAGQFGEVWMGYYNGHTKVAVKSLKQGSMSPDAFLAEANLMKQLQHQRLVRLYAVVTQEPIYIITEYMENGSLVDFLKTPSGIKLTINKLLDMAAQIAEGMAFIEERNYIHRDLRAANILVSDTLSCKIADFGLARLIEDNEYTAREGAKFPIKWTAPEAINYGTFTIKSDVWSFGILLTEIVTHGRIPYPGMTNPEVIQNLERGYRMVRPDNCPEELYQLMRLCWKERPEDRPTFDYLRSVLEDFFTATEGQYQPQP
Description: Inhibition of Lck in presence of 0.5 uM ATP by HTRF kinase assay
For COc1ccc(N(C(=O)Oc2c(C)cccc2C)c2ccnc(Nc3ccc(N4CCN(C)CC4)c(OC)c3)n2)c(OC)c1, the IC50 was 1 nM.
In the case of COc1ccc(N(C(=O)Oc2c(C)cccc2C)c2ccnc(Nc3cc(OC)c(OCCN4CCN(C)CC4)c(OC)c3)n2)c(OC)c1, the IC50 is reported as 1 nM.
Work on Cc1cccc(C)c1OC(=O)N(c1cccc(-c2ccccc2)c1)c1ccnc(Nc2ccc(N3CCN(C)CC3)cc2)n1 yielded an IC50 of 49 nM.
Cc1cccc(C)c1OC(=O)N(c1ccc(-c2ccccc2)cc1)c1ccnc(Nc2ccc(N3CCN(C)CC3)cc2)n1 was tested, and the IC50 was 13 nM.
With Cc1cccc(C)c1OC(=O)N(c1ccccc1)c1ccnc(Nc2ccc(N3CCN(C)CC3)cc2)n1 the IC50 was 14 nM.

The molecules below were run against Vascular endothelial growth factor receptor 2 (Homo sapiens, UniProt P35968).
Vascular endothelial growth factor receptor 2, sequence (P35968 whole entry): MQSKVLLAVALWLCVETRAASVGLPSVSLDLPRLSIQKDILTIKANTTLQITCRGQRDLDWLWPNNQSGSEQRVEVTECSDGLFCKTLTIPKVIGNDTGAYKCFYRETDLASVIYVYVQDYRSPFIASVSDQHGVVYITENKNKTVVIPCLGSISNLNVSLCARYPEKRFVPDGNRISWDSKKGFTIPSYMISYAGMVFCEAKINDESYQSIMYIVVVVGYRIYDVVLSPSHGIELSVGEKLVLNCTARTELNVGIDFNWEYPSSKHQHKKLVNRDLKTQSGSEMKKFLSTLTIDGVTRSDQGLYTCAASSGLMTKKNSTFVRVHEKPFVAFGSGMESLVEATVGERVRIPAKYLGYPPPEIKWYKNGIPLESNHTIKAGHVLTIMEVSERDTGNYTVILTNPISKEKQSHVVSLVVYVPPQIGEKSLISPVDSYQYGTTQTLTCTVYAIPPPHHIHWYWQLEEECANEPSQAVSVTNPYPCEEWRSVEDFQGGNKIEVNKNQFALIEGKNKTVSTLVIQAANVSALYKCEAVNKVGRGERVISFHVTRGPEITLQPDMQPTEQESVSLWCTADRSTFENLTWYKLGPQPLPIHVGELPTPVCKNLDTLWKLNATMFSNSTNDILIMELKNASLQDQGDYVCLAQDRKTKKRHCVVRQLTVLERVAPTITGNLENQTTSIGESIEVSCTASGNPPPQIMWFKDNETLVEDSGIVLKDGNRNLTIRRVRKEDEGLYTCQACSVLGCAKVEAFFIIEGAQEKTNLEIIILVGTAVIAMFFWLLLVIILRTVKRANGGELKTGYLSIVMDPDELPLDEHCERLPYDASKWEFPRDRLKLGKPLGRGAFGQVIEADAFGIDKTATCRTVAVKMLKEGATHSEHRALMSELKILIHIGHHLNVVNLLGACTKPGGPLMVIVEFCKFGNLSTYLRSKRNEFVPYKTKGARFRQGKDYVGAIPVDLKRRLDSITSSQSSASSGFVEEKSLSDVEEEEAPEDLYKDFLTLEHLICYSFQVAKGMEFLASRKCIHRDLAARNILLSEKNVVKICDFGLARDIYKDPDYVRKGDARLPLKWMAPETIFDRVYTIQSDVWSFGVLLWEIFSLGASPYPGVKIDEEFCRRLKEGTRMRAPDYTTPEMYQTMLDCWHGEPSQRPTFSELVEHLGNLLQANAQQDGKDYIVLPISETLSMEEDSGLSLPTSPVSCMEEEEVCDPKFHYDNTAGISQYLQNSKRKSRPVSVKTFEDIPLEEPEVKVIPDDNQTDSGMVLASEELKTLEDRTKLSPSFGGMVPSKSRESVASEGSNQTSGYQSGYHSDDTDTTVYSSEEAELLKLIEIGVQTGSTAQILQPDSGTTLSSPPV
COc1ccc(N(C(=O)Oc2c(C)cccc2C)c2ccnc(Nc3ccc(N4CCN(C)CC4)c(OC)c3)n2)c(OC)c1 was tested, and the IC50 was 140 nM.
COc1ccc(N(C(=O)Oc2c(C)cccc2C)c2ccnc(Nc3cc(OC)c(OCCN4CCN(C)CC4)c(OC)c3)n2)c(OC)c1 gave an IC50 of 230 nM.
Molecule Cc1cccc(C)c1OC(=O)N(c1cccc(-c2ccccc2)c1)c1ccnc(Nc2ccc(N3CCN(C)CC3)cc2)n1 has an IC50 of 1900 nM.
Cc1cccc(C)c1OC(=O)N(c1ccc(-c2ccccc2)cc1)c1ccnc(Nc2ccc(N3CCN(C)CC3)cc2)n1 gave an IC50 of 590 nM.
Cc1cccc(C)c1OC(=O)N(c1ccccc1)c1ccnc(Nc2ccc(N3CCN(C)CC3)cc2)n1 was tested, and the IC50 was 190 nM.

The molecules below were run against Proto-oncogene tyrosine-protein kinase Src (Homo sapiens, UniProt P12931) (assay: Inhibition of Src).
Proto-oncogene tyrosine-protein kinase Src, sequence (P12931 2-536 limits assumed): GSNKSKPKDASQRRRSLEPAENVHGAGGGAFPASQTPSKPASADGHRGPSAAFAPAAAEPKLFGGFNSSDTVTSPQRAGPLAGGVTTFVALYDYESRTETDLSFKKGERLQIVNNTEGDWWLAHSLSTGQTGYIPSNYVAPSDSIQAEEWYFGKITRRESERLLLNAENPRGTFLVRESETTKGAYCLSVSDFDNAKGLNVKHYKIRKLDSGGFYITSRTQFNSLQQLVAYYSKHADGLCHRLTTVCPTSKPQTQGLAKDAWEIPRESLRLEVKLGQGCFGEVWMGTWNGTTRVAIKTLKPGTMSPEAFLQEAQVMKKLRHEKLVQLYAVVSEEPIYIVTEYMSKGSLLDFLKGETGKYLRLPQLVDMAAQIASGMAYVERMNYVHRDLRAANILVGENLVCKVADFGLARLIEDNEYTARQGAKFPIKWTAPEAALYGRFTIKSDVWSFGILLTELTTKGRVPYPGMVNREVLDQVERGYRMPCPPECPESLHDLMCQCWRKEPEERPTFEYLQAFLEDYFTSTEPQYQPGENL
COc1ccc(N(C(=O)Oc2c(C)cccc2C)c2ccnc(Nc3ccc(N4CCN(C)CC4)c(OC)c3)n2)c(OC)c1 showed an IC50 of 2 nM.
For COc1ccc(N(C(=O)Oc2c(C)cccc2C)c2ccnc(Nc3cc(OC)c(OCCN4CCN(C)CC4)c(OC)c3)n2)c(OC)c1, the IC50 was 1 nM.
Cc1cccc(C)c1OC(=O)N(c1cccc(-c2ccccc2)c1)c1ccnc(Nc2ccc(N3CCN(C)CC3)cc2)n1 gave an IC50 of 500 nM.
Cc1cccc(C)c1OC(=O)N(c1ccc(-c2ccccc2)cc1)c1ccnc(Nc2ccc(N3CCN(C)CC3)cc2)n1 was tested, and the IC50 was 98 nM.
For Cc1cccc(C)c1OC(=O)N(c1ccccc1)c1ccnc(Nc2ccc(N3CCN(C)CC3)cc2)n1, the IC50 was 10 nM.

These molecules were tested against Mitogen-activated protein kinase 14 (Homo sapiens, UniProt Q16539) (assay: Inhibition of p38alpha).
Mitogen-activated protein kinase 14, sequence (Q16539 whole entry): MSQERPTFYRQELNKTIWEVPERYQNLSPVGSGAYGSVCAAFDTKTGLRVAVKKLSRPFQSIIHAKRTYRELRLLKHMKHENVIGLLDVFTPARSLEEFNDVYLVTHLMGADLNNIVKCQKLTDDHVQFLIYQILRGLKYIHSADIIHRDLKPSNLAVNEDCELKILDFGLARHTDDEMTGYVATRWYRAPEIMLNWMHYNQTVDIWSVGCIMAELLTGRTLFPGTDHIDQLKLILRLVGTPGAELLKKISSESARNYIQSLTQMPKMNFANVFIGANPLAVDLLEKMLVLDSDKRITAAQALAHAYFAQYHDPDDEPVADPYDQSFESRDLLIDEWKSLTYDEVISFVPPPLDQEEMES
Work on COc1ccc(N(C(=O)Oc2c(C)cccc2C)c2ccnc(Nc3ccc(N4CCN(C)CC4)c(OC)c3)n2)c(OC)c1 yielded an IC50 of 440 nM.
With COc1ccc(N(C(=O)Oc2c(C)cccc2C)c2ccnc(Nc3cc(OC)c(OCCN4CCN(C)CC4)c(OC)c3)n2)c(OC)c1 the IC50 was 180 nM.
With Cc1cccc(C)c1OC(=O)N(c1cccc(-c2ccccc2)c1)c1ccnc(Nc2ccc(N3CCN(C)CC3)cc2)n1 the IC50 was 8000 nM.
Work on Cc1cccc(C)c1OC(=O)N(c1ccc(-c2ccccc2)cc1)c1ccnc(Nc2ccc(N3CCN(C)CC3)cc2)n1 yielded an IC50 of 1800 nM.
Cc1cccc(C)c1OC(=O)N(c1ccccc1)c1ccnc(Nc2ccc(N3CCN(C)CC3)cc2)n1 was tested, and the IC50 was 160 nM.

These molecules were tested on T-cell (assay: Inhibition of anti-CD3/CD28-induced IL2 secretion in human T cells).
Assay type: functional, cell-based
COc1ccc(N(C(=O)Oc2c(C)cccc2C)c2ccnc(Nc3ccc(N4CCN(C)CC4)c(OC)c3)n2)c(OC)c1 was tested, and the IC50 was 140 nM.
Molecule COc1ccc(N(C(=O)Oc2c(C)cccc2C)c2ccnc(Nc3cc(OC)c(OCCN4CCN(C)CC4)c(OC)c3)n2)c(OC)c1 has an IC50 of 290 nM.
